The melting point is the temperature of the solid-liquid transition.

Melting point data for 35 compounds are collected here from a melting point compilation (Tetko et al.; mined from patent text by program, amines drawn as free bases though some values may be those of a salt).

Consider `N#CN1CCC(c2nn(C(=O)c3ccccc3)c3ccccc23)CC1`, for which the melting point lay in the range of 144 to 146 °C.

For the compound `O=C(NC(Cc1ccc(OCc2ccccc2)cc1)C(=O)O)c1cn2cc(-c3ccccc3Cl)ccc2n1` (stereo not given), the melting point was 228 °C.

In turn, `C=Cn1cc(C(=O)O)c(=O)c2cc(F)c(O)nc21` yielded a melting point of 256 to 259 °C.

As to `O=c1c2c(CCc3ccccc3[N+](=O)[O-])n[nH]c2c2cccnc2n1-c1ccccc1`, the melting point lay within 333 to 335 °C.

`CC(=O)NC[C@H]1CN(c2ccc(C3CCN(C=O)CC3)c(F)c2)C(=O)O1` returned a melting point of 186 to 187 °C.

The compound `O=C(O)c1cc2cccc(I)c2s1` showed a melting point of 268 to 270 °C.

Compound `CCOC(=O)c1ccc(/C=C(\COCc2ccc(OC)cc2)Cn2ccnc2)c(OC)c1` came in with a melting point of 74 to 74.5 °C.

On to `Fc1ccccc1CC[C@H]1CNCCN1`, for which the melting point lay in the range of 94 to 99 °C.

Take `O[C@@H]1CN=C(c2ccccc2)O[C@H]1c1ccccc1` (racemic): the melting point worked out at 135 °C.

Turning to `CCCc1nn(C)c2c(OCCOc3ccc(CC(OCC)C(=O)OCC)cc3)nc(-c3ccccc3)nc12` (stereo not given), the melting point is 80 to 82 °C.

Compound `COc1ccc(CN2C(=O)[C@H](CO)[C@H]2S(=O)(=O)C(C)(C)C)cc1` had a melting point of 121 to 122 °C.

Turning to `C[C@@H]1CC(C)(C)C[C@@]2(C1)[C@@H](C)CC(=O)[C@]2(C)O` (relative stereo), the melting point is 73 to 74 °C.

As to `Cc1nc(COc2cc(N)c(Cl)cc2C(=O)O)cs1`, the melting point was in the range of 188 to 189 °C.

`CCCCCc1ccc(-c2ccc(N)cc2)nc1` displayed a melting point of 60.3 to 61.3 °C.

Regarding `CC(C)N1CCN(CCCOc2ccc3nc(C#N)nc(NCC(C)(C)C)c3c2)CC1`, the melting point was in the range of 103 to 105 °C.

As to `COc1ccc(CCN2CCC(n3ccc4ccc(CNC(C)=O)cc43)CC2)cc1`, the melting point was in the range of 101 to 102 °C.

For `CCCCN(C(=O)CCc1ccc(OCCOC)cc1Oc1ncc(C(F)(F)F)cc1Cl)S(N)(=O)=O`, the melting point fell in the range of 102 to 103 °C.

In turn, `Cc1c(NC(=O)c2ccc(OC[C@@H]3CCCO3)cc2F)ccc2cc(CNCC(C)(C)O)cnc12` came in with a melting point of 167 to 168 °C.

Turning to `CCCCCCCNC(=O)CCCCSc1nc(-c2ccccc2)c(-c2ccccc2)[nH]1`, the melting point lay in the range of 104 to 106 °C.

Compound `COC(=O)Cc1ccc(OCCNC(=O)C2Cc3ccccc3N2S(=O)(=O)c2ccc(-c3cc(C(F)(F)F)ccc3OC)cc2)cc1` (stereo not given) gave a melting point of 61 to 64 °C.

`CC(=O)N(C)c1ccc2sc3ccc(Br)cc3c(=O)c2c1`: the melting point was in the range of 240 to 241 °C.

The compound `CC1(C)C2C=CC3(C)C(C2)C(=O)CCC13O[Si](C)(C)C` (stereo not given) returned a melting point of 73 to 76 °C.

The compound `Nc1cccc(-c2cccc(-c3ccnc4c(C(=O)c5cccs5)cnn34)c2)c1` showed a melting point of 117 to 121 °C.

`O=S(=O)(CCCCl)c1ccc(Cl)cc1` came in with a melting point of 69 to 72 °C.

`CCOCc1nc2c(N)nc3cc(Br)cnc3c2n1CC(C)(C)NC(=O)OC(C)(C)C` displayed a melting point of 176 to 178 °C.

As to `CCc1cc(-c2ccc(-c3cc[nH]n3)cc2)ccc1OC`, the melting point was 164 to 168 °C.

With `CNC(=NS(=O)(=O)C(F)(F)F)SC`, the melting point was in the range of 88 to 89 °C.

With `CCOC(=O)c1ccc(NC2CCCc3ccccc32)cc1` (stereo not given), the melting point was 34 °C.

`COc1cncc(-c2cc(=S)ss2)n1` gave a melting point of 149 °C.

In the case of `CCOC(=O)CCCn1c(Nc2cnc(OC)cc2C)nc2c(Cl)ccc(C(CC)CC)c21`, the melting point was in the range of 140 to 142 °C.

In turn, `O=C1CN2CCOC2(c2ccccc2F)c2cc(I)ccc2N1CCO` (stereo not given) showed a melting point of 160 to 165 °C.

On to `CN1CCC2(CC1)c1ccccc1Cc1ccccc12`, for which the melting point was in the range of 132 to 134 °C.

With `Cc1cc(C)nc(-n2ccnc2SCc2ccccc2NC=O)c1`, the melting point lay within 124 to 126 °C.

For the compound `CC(=O)OC1CCC2(C)C(=CCC3C2CCC2(C)C(C(C)CC(F)(F)CC(C)(C)O)CCC32)C1` (stereo not given), the melting point lay in the range of 168 to 170 °C.

Turning to `CCS(=O)(=O)c1ncc(S(N)(=O)=O)s1`, the melting point fell in the range of 129 to 130 °C.
